According to the NIST ThermoML archive (doi:10.1021/je700288s):

Assay: mn = molality of the nth substance listed, in mol/kg
Settings: 101 kPa, Liquid; for speed of sound: Sing-around technique in a fixed-path interferometer; for mass density: Vibrating tube method

O=C([O-])CC(O)(CC(=O)O)C(=O)O.[K+] [potassium dihydrogen citrate] + O
Settings | mass density [kg/m3] | speed of sound [m/s]
283.15 K, m1 = 0.0063 | 1000.47 | 1448.8
283.15 K, m1 = 0.0186 | 1001.97 | 1450.1
283.15 K, m1 = 0.0314 | 1003.53 | 1451.5
283.15 K, m1 = 0.0407 | 1004.65 | 1452.5
283.15 K, m1 = 0.0561 | 1006.52 | 1454.2
283.15 K, m1 = 0.0574 | 1006.67 | 1454.3
283.15 K, m1 = 0.0868 | 1010.19 | 1457.2
283.15 K, m1 = 0.0905 | 1010.65 | 1457.9
283.15 K, m1 = 0.1399 | 1016.4 | 1462.9
283.15 K, m1 = 0.1655 | 1019.36 | 1465.4
283.15 K, m1 = 0.284 | 1032.79 | 1477
283.15 K, m1 = 0.396 | 1044.96 | 1487.4
283.15 K, m1 = 0.4766 | 1053.37 | 1494.6
283.15 K, m1 = 0.5861 | 1064.69 | 1504.1
283.15 K, m1 = 0.5922 | 1065.27 | 1504.7
283.15 K, m1 = 0.7578 | 1081.71 | 1518.5
288.15 K, m1 = 0.0063 | 999.861 | 1466.9
288.15 K, m1 = 0.0186 | 1001.34 | 1468.2
288.15 K, m1 = 0.0314 | 1002.87 | 1469.5
288.15 K, m1 = 0.0407 | 1003.98 | 1470.4
288.15 K, m1 = 0.0561 | 1005.82 | 1472
288.15 K, m1 = 0.0574 | 1005.97 | 1472.1
288.15 K, m1 = 0.0868 | 1009.45 | 1475
288.15 K, m1 = 0.0905 | 1009.9 | 1475.4
288.15 K, m1 = 0.1399 | 1015.58 | 1480.1
288.15 K, m1 = 0.1655 | 1018.5 | 1482.5
288.15 K, m1 = 0.284 | 1031.76 | 1493.4
288.15 K, m1 = 0.396 | 1043.8 | 1503.1
288.15 K, m1 = 0.4766 | 1052.13 | 1509.8
288.15 K, m1 = 0.5861 | 1063.34 | 1518.9
288.15 K, m1 = 0.5922 | 1063.9 | 1519.4
288.15 K, m1 = 0.7578 | 1080.19 | 1532.5
293.15 K, m1 = 0.0063 | 998.956 | 1483.1
293.15 K, m1 = 0.0186 | 1000.41 | 1484.3
293.15 K, m1 = 0.0314 | 1001.93 | 1485.5
293.15 K, m1 = 0.0407 | 1003.03 | 1486.4
293.15 K, m1 = 0.0561 | 1004.84 | 1487.9
293.15 K, m1 = 0.0574 | 1004.99 | 1488
293.15 K, m1 = 0.0868 | 1008.42 | 1490.7
293.15 K, m1 = 0.0905 | 1008.87 | 1491
293.15 K, m1 = 0.1399 | 1014.48 | 1495.5
293.15 K, m1 = 0.1655 | 1017.37 | 1497.7
293.15 K, m1 = 0.284 | 1030.49 | 1507.8
293.15 K, m1 = 0.396 | 1042.41 | 1517
293.15 K, m1 = 0.4766 | 1050.65 | 1523.3
293.15 K, m1 = 0.5861 | 1061.76 | 1531.8
293.15 K, m1 = 0.5922 | 1062.33 | 1532.3
293.15 K, m1 = 0.7578 | 1078.48 | 1544.7
298.15 K, m1 = 0.0063 | 997.788 | 1497.3
298.15 K, m1 = 0.0186 | 999.232 | 1498.5
298.15 K, m1 = 0.0314 | 1000.73 | 1499.6
298.15 K, m1 = 0.0407 | 1001.82 | 1500.4
298.15 K, m1 = 0.0561 | 1003.61 | 1501.8
298.15 K, m1 = 0.0574 | 1003.75 | 1501.9
298.15 K, m1 = 0.0868 | 1007.15 | 1504.4
298.15 K, m1 = 0.0905 | 1007.6 | 1504.7
298.15 K, m1 = 0.1399 | 1013.15 | 1508.8
298.15 K, m1 = 0.1655 | 1016 | 1510.9
298.15 K, m1 = 0.284 | 1029 | 1520.5
298.15 K, m1 = 0.396 | 1040.81 | 1529
298.15 K, m1 = 0.4766 | 1048.98 | 1535
298.15 K, m1 = 0.5861 | 1060 | 1543
298.15 K, m1 = 0.5922 | 1060.56 | 1543.5
298.15 K, m1 = 0.7578 | 1076.59 | 1555.2
303.15 K, m1 = 0.0063 | 996.385 | 1509.7
303.15 K, m1 = 0.0186 | 997.809 | 1510.7
303.15 K, m1 = 0.0314 | 999.297 | 1511.8
303.15 K, m1 = 0.0407 | 1000.37 | 1512.5
303.15 K, m1 = 0.0561 | 1002.15 | 1513.8
303.15 K, m1 = 0.0574 | 1002.29 | 1513.9
303.15 K, m1 = 0.0868 | 1005.65 | 1516.3
303.15 K, m1 = 0.0905 | 1006.09 | 1516.6
303.15 K, m1 = 0.1399 | 1011.59 | 1520.5
303.15 K, m1 = 0.1655 | 1014.43 | 1522.4
303.15 K, m1 = 0.284 | 1027.31 | 1531.4
303.15 K, m1 = 0.396 | 1039.02 | 1539.4
303.15 K, m1 = 0.4766 | 1047.12 | 1545
303.15 K, m1 = 0.5861 | 1058.06 | 1552.6
303.15 K, m1 = 0.5922 | 1058.61 | 1553
303.15 K, m1 = 0.7578 | 1074.53 | 1564.2
308.15 K, m1 = 0.0063 | 994.762 | 1520.3
308.15 K, m1 = 0.0186 | 996.176 | 1521.3
308.15 K, m1 = 0.0314 | 997.649 | 1522.3
308.15 K, m1 = 0.0407 | 998.709 | 1523
308.15 K, m1 = 0.0561 | 1000.47 | 1524.2
308.15 K, m1 = 0.0574 | 1000.61 | 1524.3
308.15 K, m1 = 0.0868 | 1003.95 | 1526.5
308.15 K, m1 = 0.0905 | 1004.38 | 1526.8
308.15 K, m1 = 0.1399 | 1009.84 | 1530.4
308.15 K, m1 = 0.1655 | 1012.65 | 1532.3
308.15 K, m1 = 0.284 | 1025.42 | 1540.7
308.15 K, m1 = 0.396 | 1037.05 | 1548.2
308.15 K, m1 = 0.4766 | 1045.1 | 1553.5
308.15 K, m1 = 0.5861 | 1055.95 | 1560.7
308.15 K, m1 = 0.5922 | 1056.5 | 1561.1
308.15 K, m1 = 0.7578 | 1072.31 | 1571.6
